Results reported in patent publication US8367709B2, “Dipeptide analogs as coagulation factor inhibitors” (priority 2007, dated 2013).
pKi: −log10 of the molar value. Where a name gives a salt, the structure may show the parent alone.

Biological target: T1, purified human Factor XIa (Homo sapiens, UniProt P03951)
T1 construct: purchased Haematologic Technologies
Experiment: Factor XIa assay (chromogenic substrate S-2366 hydrolysis, Ki)
Format: biochemical
Conditions: not given
Method: The effectiveness of compounds of the present invention as inhibitors of the coagulation factors XIa, VIIa, IXa, Xa, XIIa, plasma kallikrein or thrombin, can be determined using a relevant purified serine protease, respectively, and an appropriate synthetic substrate. The rate of hydrolysis of the chromogenic or fluorogenic substrate by the relevant serine protease was measured both in the absence and presence of compounds of the present invention. […] A decrease in the rate of absorbance or fluorescence change in the presence of inhibitor is indicative of enzyme inhibition. Such methods are known to one skilled in the art. The results of this assay are expressed as the inhibitory constant, Ki.
Values of Ki were determined by allowing the protease to react with the substrate in the presence of the inhibitor. Reactions were allowed to go for periods of 20-180 minutes (depending on the protease) and the velocities (rate of absorbance or fluorescence change versus time) were measured. The following relationships were used to calculate Ki values:
vs/vo=A+((B−A)/1+((IC50/(I)^n))) and […]

T1 sequence (P03951 19-387): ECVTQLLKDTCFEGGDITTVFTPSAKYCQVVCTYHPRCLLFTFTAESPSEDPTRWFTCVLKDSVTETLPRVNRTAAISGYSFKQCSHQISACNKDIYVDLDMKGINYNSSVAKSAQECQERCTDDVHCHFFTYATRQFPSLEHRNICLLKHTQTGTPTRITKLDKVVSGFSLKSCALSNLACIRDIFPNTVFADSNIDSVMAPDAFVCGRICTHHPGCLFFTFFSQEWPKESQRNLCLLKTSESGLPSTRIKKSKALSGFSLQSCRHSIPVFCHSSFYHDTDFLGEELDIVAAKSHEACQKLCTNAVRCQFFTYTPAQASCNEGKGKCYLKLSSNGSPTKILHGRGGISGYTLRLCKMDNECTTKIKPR
T1 sequence (P03951 388-625): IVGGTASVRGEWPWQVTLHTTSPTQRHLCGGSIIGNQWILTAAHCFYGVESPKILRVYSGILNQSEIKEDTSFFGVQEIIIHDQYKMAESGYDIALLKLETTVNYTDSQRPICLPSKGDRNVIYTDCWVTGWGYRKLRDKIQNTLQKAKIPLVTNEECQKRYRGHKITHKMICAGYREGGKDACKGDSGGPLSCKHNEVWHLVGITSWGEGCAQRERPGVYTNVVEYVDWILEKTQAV

pKi | SMILES
6.85 | CCOC(=O)Cc1ccc(NC(=O)[C@H](Cc2ccccc2)NC(=O)CCc2cc(Cl)ccc2-n2cnnn2)cc1 [Example 1, (S)-ethyl 2-(4-(2-(3-(5-chloro-2-(1H-tetrazol-1-yl)phenyl)propan-amideo)-3-phenylpropanamido)phenyl)acetate]
6.54 | O=C(/C=C/c1c(F)ccc(Cl)c1F)N[C@@H](Cc1ccccc1)C(=O)Nc1ccc(C(=O)O)cc1 [Example 15, 4-{(S)-2-[(E)-3-(3-chloro-2,6-difluoro-phenyl)-acryloylamino]-3-phenyl-propionylamino}-benzoic acid]
6.50 | C[C@H](NC(=O)/C=C/c1cc(Cl)ccc1-n1cnnn1)C(=O)Nc1ccc(CC(=O)O)cc1 [Example 51, (4-{(S)-2-[(E)-3-(5-chloro-2-tetrazol-1-yl-phenyl)-acryloylamino]-propionylamino}-phenyl)-acetic acid]
5.45 | O=C(/C=C/c1c(F)ccc(Cl)c1F)N[C@@H](Cc1ccccc1)C(=O)Nc1ccc2cn[nH]c2c1 [Example 57, (E)-3-(3-chloro-2,6-difluoro-phenyl)-N—[(S)-1-(1H-indazol-6-ylcarbamoyl)-2-phenyl-ethyl]-acrylamide]
7.19 | NCc1ccc(Cl)cc1/C=C/C(=O)N[C@@H](Cc1ccccc1)C(=O)Nc1ccc(C(=O)O)cc1 [Example 83, (S,E)-4-(2-(3-(2-(aminomethyl)-5-chlorophenyl)acrylamido)-3-phenylpropanamido)benzoic acid, TFA salt]
7.27 | COC(=O)c1ccc2nc(NC(=O)[C@H](Cc3ccccc3)NC(=O)/C=C/c3cc(Cl)ccc3-n3cnnn3)nn2c1 [Example 92, (S,E)-methyl 2-(2-(3-(5-chloro-2-(1H-tetrazol-1-yl)phenyl)acrylamido)-3-phenylpropanamido)-[1,2,4]triazolo[1,5-a]pyridine-6-carboxylate]
5.11 | COC(=O)Nc1ccc2c(c1)CCN(C(=O)[C@H](Cc1ccccc1)NC(=O)/C=C/c1cc(Cl)ccc1-n1cnnn1)C2 [Example 127, (S,E)-methyl 2-(2-(3-(5-chloro-2-(1H-tetrazol-1-yl)phenyl)acrylamido)-3-phenylpropanoyl)-1,2,3,4-tetrahydroisoquinolin-6-ylcarbamate]
5.41 | O=C(/C=C/c1cc(Cl)ccc1-n1cnnn1)N[C@@H](Cc1ccccc1)C(=O)Nc1cccn2c(C(F)(F)F)nnc12 [Example 142, (S,E)-3-(5-chloro-2-(1H-tetrazol-1-yl)phenyl)-N-(1-oxo-3-phenyl-1-(3-(trifluoromethyl)-[1,2,4]-triazolo[4,3-a]pyridin-8-ylamino)propan-2-yl)acrylamide]
5.19 | O=C(N[C@@H](Cc1ccccc1)C(=O)NCCc1cc(Cl)ccc1-n1cnnn1)c1n[nH]c2ccccc12 [Example 149, (S)—N-(1-(5-chloro-2-(1H-tetrazol-1-yl)phenethylamino)-1-oxo-3-phenylpropan-2-yl)-1H-indazole-3-carboxamide]
5.03 | O=C1CNC(=O)c2ccc(C(=O)N[C@@H](Cc3ccccc3)C(=O)NCCc3cc(Cl)ccc3-n3cnnn3)cc2N1 [Example 187, (S)—N-(1-(5-chloro-2-(1H-tetrazol-1-yl)phenethylamino)-1-oxo-3-phenylpropan-2-yl)-2,5-dioxo-2,3,4,5-tetrahydro-1H-benzo[e][1,4]diazepine-8-carboxamide]
5.08 | O=C(/C=C/c1cc(Cl)ccc1-n1cnnn1)N[C@@H](Cc1ccccc1)C(=O)N[C@@H]1CCCCNC1=O [Example 196]
7.56 | Nc1nc2ccc(C(=O)N[C@@H](Cc3ccccc3)C(=O)NCCc3cc(Cl)ccc3-n3cnnn3)cc2s1 [Example 204, (S)-2-amino-N-(1-(5-chloro-2-(1H-tetrazol-1-yl)phenethylamino)-1-oxo-3-phenylpropan-2-yl)benzo[d]thiazole-6-carboxamide, TFA salt]
7.71 | O=C1CSc2cc(C(=O)N[C@@H](Cc3ccccc3)C(=O)NCCc3cc(Cl)ccc3-n3cnnn3)ccc2N1 [Example 206, (S)—N-(1-(5-chloro-2-(1H-tetrazol-1-yl)phenethylamino)-1-oxo-3-phenylpropan-2-yl)-3-oxo-3,4-dihydro-2H-benzo[b][1,4]thiazine-7-carboxamide]
7.18 | COC(=O)c1ccc(NC(=O)[C@H](Cc2cc(C)n(C)n2)NC(=O)/C=C/c2c(-n3cnnn3)ccc(Cl)c2F)nc1 [Example 216, (S,E)-methyl 6-(2-(3-(3-chloro-2-fluoro-6-(1H-tetrazol-1-yl)phenyl)acrylamido)-3-(1,5-dimethyl-1H-pyrazol-3-yl)propanamido)nicotinate, TFA salt]

Same assay, conditions: purified human Factor XIa 75-200 pM, substrate S-2366, 50 mM HEPES pH 7.4; read-out: Factor XIa Ki

pKi | SMILES
6.17 | Nc1n[nH]c2cc(NC(=O)[C@H](Cc3ccccc3)NC(=O)C[S+]([O-])c3cc(Cl)ccc3-n3cnnn3)ccc12 (single isomer, unassigned; isomer b) [Example 133]
5.53 | COC(=O)Nc1ccc(NC(=O)[C@H](Cc2ccccc2)NC(=O)/C=C/c2cc(Cl)ccc2-n2cnnn2)c(Cl)c1 [Example 14, (3-chloro-4-{(S)-2-[(E)-3-(5-chloro-2-tetrazol-1-yl-phenyl)-acryloylamino]-3-phenyl-propionylamino}-phenyl)-carbamic acid methyl ester]
6.98 | O=C(/C=C/c1cc(Cl)ccc1-n1cnnn1)N[C@@H](Cc1ccccc1)C(=O)Nc1ncc(C(=O)O)s1 [Example 21, 2-{(S)-2-[(E)-3-(5-chloro-2-tetrazol-1-yl-phenyl)-acryloylamino]-3-phenyl-propionylamino}-thiazole-5-carboxylic acid]
7.90 | O=C(/C=C/c1cc(Cl)ccc1-n1cnnn1)N[C@@H](Cc1ccccc1)C(=O)Nc1ccc2[nH]ncc2c1 [Example 30, (E)-3-(5-chloro-2-tetrazol-1-yl-phenyl)-N—[(S)-1-(1H-indazol-5-ylcarbamoyl)-2-phenyl-ethyl]-acrylamide]
7.47 | O=C(/C=C/c1cc(Cl)ccc1-n1cnnn1)N[C@@H](Cc1ccccc1)C(=O)Nc1ccc2c(=O)[nH][nH]c(=O)c2c1 [Example 36, (E)-3-(5-chloro-2-tetrazol-1-yl-phenyl)-N—[(S)-1-(1,4-dioxo-1,2,3,4-tetrahydro-phthalazin-6-ylcarbamoyl)-2-phenyl-ethyl]-acrylamide]
8.79 | O=C(/C=C/c1cc(Cl)ccc1-n1cnnn1)N[C@@H](Cc1cccc(F)c1)C(=O)Nc1ccc(-c2nnn[nH]2)cc1 [Example 43, (E)-3-(5-chloro-2-tetrazol-1-yl-phenyl)-N-{(S)-2-(3-fluoro-phenyl)-1-[4-(1H-tetrazol-5-yl)-phenylcarbamoyl]-ethyl}-acrylamide]
7.48 | CN1CCN(C(=O)C[C@H](NC(=O)/C=C/c2cc(Cl)ccc2-n2cnnn2)C(=O)Nc2ccc(C(=O)O)cc2)CC1 [Example 45, 4-[(S)-2-[(E)-3-(5-chloro-2-tetrazol-1-yl-phenyl)-acryloylamino]-4-(4-methyl-piperazin-1-yl)-4-oxo-butyrylamino]-benzoic acid]
5.95 | CC[C@H](NC(=O)/C=C/c1cc(Cl)ccc1-n1cnnn1)C(=O)Nc1ccc(NC(=O)OC)cc1 [Example 50, (4-{(S)-2-[(E)-3-(5-chloro-2-tetrazol-1-yl-phenyl)-acryloylamino]-butyrylamino}-phenyl)-carbamic acid methyl ester]
6.61 | O=C(/C=C/c1cc(Cl)ccc1-n1cnnn1)N[C@@H](Cc1ccccc1)C(=O)Nc1ccc2c(c1)CCNC2 [Example 53, (E)-3-(5-chloro-2-tetrazol-1-yl-phenyl)-N—[(S)-2-phenyl-1-(1,2,3,4-tetrahydro-isoquinolin-6-ylcarbamoyl)-ethyl]-acrylamide]
6.27 | O=C(/C=C/c1cc(Cl)ccc1-n1cnnn1)N[C@@H](Cc1ccccc1)C(=O)Nc1nc2ccc(F)cc2s1 [Example 97, (S,E)-3-(5-chloro-2-(1H-tetrazol-1-yl)phenyl)-N-(1-(6-fluorobenzo[d]thiazol-2-ylamino)-1-oxo-3-phenylpropan-2-yl)acrylamide]
5.83 | O=C(/C=C/c1cc(Cl)ccc1-n1cnnn1)N[C@@H](Cc1ccccc1)C(=O)Nc1ccc(N2CCSCC2)cc1 [Example 99, (S,E)-3-(5-chloro-2-(1H-tetrazol-1-yl)phenyl)-N-(1-oxo-3-phenyl-1-(4-thiomorpholinophenylamino)propan-2-yl)acrylamide, TFA salt]
6.95 | COC(=O)c1ccc(NC(=O)[C@H](Cc2ccccc2)NC(=O)/C=C/c2cc(Cl)ccc2-n2cnnn2)nc1 [Example 103, (S,E)-methyl 6-(2-(3-(5-chloro-2-(1H-tetrazol-1-yl)phenyl)acrylamido)-3-phenylpropanamido)nicotinate, TFA salt]
7.17 | O=C(/C=C/c1cc(Cl)ccc1-n1cnnn1)N[C@@H](Cc1ccccc1)C(=O)Nc1ccc2c(c1)C(=O)NC2 [Example 129, (S,E)-3-(5-chloro-2-(1H-tetrazol-1-yl)phenyl)-N-(1-oxo-1-(3-oxoisoindolin-5-ylamino)-3-phenylpropan-2-yl)acrylamide]
7.27 | O=C(/C=C/c1cc(Cl)ccc1-n1cnnn1)N[C@@H](Cc1ccccc1)C(=O)Nc1n[nH]c2ncccc12 [Example 137, (S,E)-N-(1-(1H-pyrazolo[3,4-b]pyridin-3-ylamino)-1-oxo-3-phenylpropan-2-yl)-3-(5-chloro-2-(1H-tetrazol-1-yl)phenyl)acrylamide, TFA salt]
7.42 | COP(=O)(CCOC(=O)Nc1ccc(NC(=O)[C@H](Cc2ccccc2)NC(=O)/C=C/c2cc(Cl)ccc2-n2cnnn2)cc1)OC [Example 171, (S,E)-2-(dimethoxyphosphoryl)ethyl 4-(2-(3-(5-chloro-2-(1H-tetrazol-1-yl)phenyl)-acrylamido)-3-phenylpropanamido)phenylcarbamate]
